The subject of assay [1] is bursts driven by recurrent mossy fibers in DG. In words: Antidromically evoked bursts (coastline burst index) in dentate gyrus of acute slices from pilocarpine-treated mice. In kind it is cell-based, mouse. As to conditions: WT mice; bath application. The method, then: All experiments were approved by the Institut National de la Santé et de la Recherche Médicale animal care and use committee of May 29, 2001 (2001-464) and the European community council directive of Nov. 24, 1986 (86/609/EEC). Mice (FVB/N background) had access to food and water ad libitum and were housed under a 12 h light/dark cycle at 22-24° C. Male GluK2−/− and WT mice (P60-80) were given scopolamine (1 mg/kg) subcutaneously (s.c.) 15 minutes prior to s.c. administration of pilocarpine (200-600 mg/kg). A ramp protocol was used whereby animals were given an initial dose of 200 mg/kg followed by half-doses every 30 minutes until seizures appeared. […] Diazepam (10 mg/kg) was administered 45 minutes after onset of SE. […]
Cultured or acute slices were individually transferred to a recording chamber maintained at 30-32° C. and continuously perfused (2 ml/min) with oxygenated normal or adapted ACSF containing 5 μM gabazine. […] Signals were analyzed off-line using Clampfit 9.2 (PClamp) and MiniAnalysis 6.0.1 (Synaptosoft, Decatur, Ga.). In organotypic slices, spontaneous EPSCs were recorded at the reversal potential for GABAergic currents (Vh=−70 mV). To characterize the nature and kinetic properties of fast and slow events, miniature EPSCs (mEPSCs) evoked in Sr2+ conditions (external Ca2+ was substituted with 1.2 mM Sr2+) were recorded in DGCs from GluK2−/− and WT slices. […]

Another assay has as its target GluK2/GluK5 receptors (Homo sapiens, UniProt Q13002+Q16478). The settings on record: cited from earlier work.

Chain of GluK2/GluK5 receptors (Q13002 32-908): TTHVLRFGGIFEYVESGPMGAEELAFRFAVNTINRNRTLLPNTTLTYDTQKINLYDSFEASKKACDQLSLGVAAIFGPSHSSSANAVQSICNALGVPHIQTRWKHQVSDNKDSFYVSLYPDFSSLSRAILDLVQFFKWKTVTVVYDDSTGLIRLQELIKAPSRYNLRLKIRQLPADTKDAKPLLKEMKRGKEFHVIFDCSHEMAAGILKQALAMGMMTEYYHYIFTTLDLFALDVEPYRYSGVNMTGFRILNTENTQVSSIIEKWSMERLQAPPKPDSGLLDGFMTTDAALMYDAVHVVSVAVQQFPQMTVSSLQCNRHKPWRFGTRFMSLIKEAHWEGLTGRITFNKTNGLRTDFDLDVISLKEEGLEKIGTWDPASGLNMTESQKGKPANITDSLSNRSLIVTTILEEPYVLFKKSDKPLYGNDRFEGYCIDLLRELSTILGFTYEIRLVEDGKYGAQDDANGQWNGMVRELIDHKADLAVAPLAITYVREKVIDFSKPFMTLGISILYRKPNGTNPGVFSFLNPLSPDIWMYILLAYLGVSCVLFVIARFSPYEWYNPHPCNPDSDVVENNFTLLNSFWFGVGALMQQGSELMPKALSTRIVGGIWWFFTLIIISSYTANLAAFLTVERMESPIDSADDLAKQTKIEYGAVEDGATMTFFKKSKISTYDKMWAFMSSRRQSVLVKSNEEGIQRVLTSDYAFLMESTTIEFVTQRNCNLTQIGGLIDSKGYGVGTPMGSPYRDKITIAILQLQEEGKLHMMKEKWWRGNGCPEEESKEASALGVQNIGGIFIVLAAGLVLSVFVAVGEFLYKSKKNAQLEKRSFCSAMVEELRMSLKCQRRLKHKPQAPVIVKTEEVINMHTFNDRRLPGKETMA
Chain of GluK2/GluK5 receptors (Q16478 15-980): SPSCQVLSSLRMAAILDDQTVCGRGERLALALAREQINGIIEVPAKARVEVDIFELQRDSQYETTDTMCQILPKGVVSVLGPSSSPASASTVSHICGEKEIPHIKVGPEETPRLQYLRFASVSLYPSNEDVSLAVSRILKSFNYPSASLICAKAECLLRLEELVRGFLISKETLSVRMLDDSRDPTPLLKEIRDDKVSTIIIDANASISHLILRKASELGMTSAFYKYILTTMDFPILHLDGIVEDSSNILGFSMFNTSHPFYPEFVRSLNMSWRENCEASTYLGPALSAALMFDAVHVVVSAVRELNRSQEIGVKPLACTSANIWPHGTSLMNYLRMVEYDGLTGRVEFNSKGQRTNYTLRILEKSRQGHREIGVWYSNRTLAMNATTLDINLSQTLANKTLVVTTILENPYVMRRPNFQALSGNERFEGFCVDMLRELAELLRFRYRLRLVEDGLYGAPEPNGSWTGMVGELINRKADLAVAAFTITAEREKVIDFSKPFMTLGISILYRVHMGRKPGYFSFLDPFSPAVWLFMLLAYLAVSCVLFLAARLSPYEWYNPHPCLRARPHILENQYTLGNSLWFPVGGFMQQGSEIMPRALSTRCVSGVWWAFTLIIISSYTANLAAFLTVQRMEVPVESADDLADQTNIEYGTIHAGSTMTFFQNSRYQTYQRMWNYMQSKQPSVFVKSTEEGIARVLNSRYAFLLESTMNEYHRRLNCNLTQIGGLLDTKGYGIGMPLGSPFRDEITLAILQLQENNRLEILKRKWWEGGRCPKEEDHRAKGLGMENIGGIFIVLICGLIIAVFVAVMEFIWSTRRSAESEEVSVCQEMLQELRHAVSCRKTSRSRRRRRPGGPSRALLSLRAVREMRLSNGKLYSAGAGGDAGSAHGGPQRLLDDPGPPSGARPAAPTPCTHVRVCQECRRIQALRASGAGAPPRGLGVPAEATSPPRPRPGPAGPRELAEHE

For `Cc1cn(C[C@H](N)C(=O)O)c(=O)n(Cc2ccsc2C(=O)O)c1=O` [UBP310], the “reduction of evoked bursts (coastline burst index)” value in assay [1] was 55%. Further, the “inhibition of heteromeric GluK2/GluK5 receptors” value at GluK2/GluK5 receptors is reported as “inhibits GluK2/GluK5”.

(Values after patent US10016424B2, “Method and pharmaceutical composition for use in the treatment of epilepsy” (INSERM (Institut National de la Sante et de la Recherche …, priority 2013, dated 2018).)
